Values quoted from earlier work as cited in US20150320746A1, “PHARMACEUTICAL FORMULATION COMPRISING 2,3-DIMETHYL-6-(N,N-DIMETHYLAMINOETHYL)-6H-INDOLO-(2,3-B)QUINOXALINE” (priority 2011, published 2015).

Test system: HSV-1

## Nc1nc2c(ncn2COCCO)c(=O)[nH]1 [Acyclovir, acyclovir]
  selectivity ratio for the inhibitory activity against HSV-1 in vitro: about 2000
